According to patent US20230398112A1, “SPRAY-DRIED METAL-ORGANIC FRAMEWORKS FOR TREATMENT AND/OR DIAGNOSIS OF PULMONARY DISEASE” (priority 2020, published 2023):

How the values were obtained:
[1] = Thermogravimetric analysis (TGA), thermal stability; format: physicochemical; conditions: under air at 3° C./min
Method: The loss of ca 10 wt. % below 100° C. is attributable to crystallized water leading to a dark blue anhydrous Cu(POA)2 crystalline phase, which can also be instantaneously obtained by exposing the hydrated phase to various organic solvents (i.e. MeOH, EtOH and DMF). […] Fourier-transform infrared spectroscopy (FTIR) analysis also clearly distinguishes between the two phases, as an absorption band attributed to coordinated water at 3.400 cm^−1 can be seen for the hydrated form in FIG. 1D.

Mtb = conditions: delivered orally; cited from earlier work

Q: For O=C(O)c1cnccn1 [POA, pyrazinoic acid], which “thermal stability (TGA)” value [1] is on record?
A: 100-200 °C

Q: And the “efficacy as TB therapy” value (Mtb)?
A: ineffective
